The text below walks through data of ChEMBL document CHEMBL1131885, “Acyclic structural variants of growth hormone secretagogue L-692,429” (1999).

Assay [1] is filed under the species Rattus norvegicus. The experiment in a line: In vitro growth hormone release in rat pituitary cells assay was determined. Format: functional. The settings on record: Pituitary gland cell, read-out: ED50 (the source's name).
The species named for assay [2] is Rattus norvegicus. The experiment in a line: In vitro growth hormone release in rat pituitary cells assay was determined; IA means inactive. The settings on record: Pituitary gland cell. Format: functional, cell-based.

The source made the active and inactive calls. The calls are words filed in the database; no cut-off is given here.

In the case of `CN(Cc1ccc(-c2ccccc2-c2nn[nH]n2)cc1)C(=O)[C@@H](CCc1ccccc1)NC(=O)CC(C)(C)N`, in the assay listed under Rattus norvegicus [1], the EC50 is greater than 300 nM.
With `CC(C)(N)CC(=O)NCC(=O)NCc1ccc(-c2ccccc2-c2nn[nH]n2)cc1`, in the assay listed under Rattus norvegicus [2], the ED50 entry was “inactive”.
Regarding `CN(C(=O)[C@@H](CCc1ccccc1)NC(=O)C(C)(C)N)c1ccc(-c2ccccc2-c2nn[nH]n2)cc1`, in the assay filed under Rattus norvegicus [1], the EC50 amounted to 300 nM.
On the same count and under the same terms, for `CC(C)(N)CC(=O)N[C@H](CCc1ccccc1)C(=O)NCc1ccc(-c2ccccc2-c2nn[nH]n2)cc1` the value was 200 nM; for `CCN(Cc1ccc(-c2ccccc2-c2nn[nH]n2)cc1)C(=O)[C@@H](CCc1ccccc1)NC(=O)C(C)(C)N`, greater than 500 nM.
On the same count and under the same terms, to `CC(C)(N)CC(=O)N[C@H](COCc1ccccc1)C(=O)NCc1ccc(-c2ccccc2-c2nn[nH]n2)cc1` belongs greater than 1000 nM; to `CC(C)(N)CC(=O)N[C@@H]1CCc2ccccc2N(Cc2ccc(-c3ccccc3-c3nn[nH]n3)cc2)C1=O`, 60 nM; to `CN(Cc1ccc(-c2ccccc2-c2nn[nH]n2)cc1)C(=O)[C@@H](CCc1ccccc1)NC(=O)CCC(C)(C)N`, greater than 300 nM.
The same measure, in the same setting: for `CC(C)(N)CC(=O)N[C@H](Cc1ccccc1)C(=O)NCc1ccc(-c2ccccc2-c2nn[nH]n2)cc1` the value was 11000 nM; for `CC(C)(N)CC(=O)N[C@H](Cc1c[nH]c2ccccc12)C(=O)NCc1ccc(-c2ccccc2-c2nn[nH]n2)cc1`, 400 nM.
With `C[C@@H](NC(=O)CC(C)(C)N)C(=O)NCc1ccc(-c2ccccc2-c2nn[nH]n2)cc1`, in the assay listed under Rattus norvegicus [2], the ED50 result was “inactive”.
For `CN(Cc1ccc(-c2ccccc2-c2nn[nH]n2)cc1)C(=O)[C@@H](CCc1ccccc1)NC(=O)C(C)(C)N`, in the assay filed under Rattus norvegicus [1], the EC50 was found to be 30 nM.
Same read-out and setting: to `CC(C)N(Cc1ccc(-c2ccccc2-c2nn[nH]n2)cc1)C(=O)[C@@H](CCc1ccccc1)NC(=O)C(C)(C)N` belongs greater than 500 nM; to `CC[C@@H](NC(=O)CC(C)(C)N)C(=O)N(Cc1ccc(-c2ccccc2-c2nn[nH]n2)cc1)c1ccccc1`, 11000 nM.
